Source: patent US20250177586A1, “HEATING APPARATUS AND METHODS” (ACADEMISCH ZIEKENHUIS LEIDEN (H.O.D.N. LUMC), priority 2018, published 2025)

Tested on: S. Epidermidis biofilm
Test: Eradication of biofilm from titanium alloy coupon by induction-heating thermal shock followed by antibiotics (FIG. 13)
Assay type: cell-based
Details: vancomycine 10 mg/L and rifampicine 1 mg together, 24 hours exposure in BHI culture medium, after thermal shock of 65° C. from 3.5 minutes with induction heating, N=6 or greater
From the text: N=6 or greater for each group.

| Structure (SMILES) | eradication of biofilm (active count, Log (CFU/cm^2)) |
| --- | --- |
| CO[C@H]1/C=C/O[C@@]2(C)Oc3c(C)c(O)c4c(O)c(c(/C=N/N5CCN(C)CC5)c(O)c4c3C2=O)NC(=O)/C(C)=C\C=C\[C@H](C)[C@H](O)[C@@H](C)[C@@H](O)[C@@H](C)[C@H](OC(C)=O)[C@@H]1C [rifampicine] | full eradication |
| CN[C@H](CC(C)C)C(=O)N[C@H]1C(=O)N[C@@H](CC(N)=O)C(=O)N[C@H]2C(=O)N[C@H]3C(=O)N[C@H](C(=O)N[C@H](C(=O)O)c4cc(O)cc(O)c4-c4cc3ccc4O)[C@H](O)c3ccc(c(Cl)c3)Oc3cc2cc(c3O[C@@H]2O[C@H](CO)[C@@H](O)[C@H](O)[C@H]2O[C@H]2C[C@](C)(N)[C@H](O)[C@H](C)O2)Oc2ccc(cc2Cl)[C@H]1O [vancomycine] | full eradication |
